Assay results from the NIST ThermoML archive (doi:10.1021/je7005067).
± gives the expanded uncertainty stated by the source.

Settings: Liquid

Q: For `CCCCC(CC)COC(=O)c1ccccc1C(=O)OCC(CC)CCCC` (configuration not stated) [bis(2-ethylhexyl) 1,2-benzenedicarboxylate], which “vapor or sublimation pressure” value (423.15 K) is on record?
A: 0.008 ± 0.0023 kPa

Q: And the “vapor or sublimation pressure” value (433.15 K)?
A: 0.017 ± 0.0031 kPa

Q: What about the “vapor or sublimation pressure” value (443.15 K) of the same molecule?
A: 0.0326 ± 0.0051 kPa

Q: What about the “vapor or sublimation pressure” value (448.15 K) of the same molecule?
A: 0.0419 ± 0.0065 kPa

Q: What about the “vapor or sublimation pressure” value (453.15 K) of the same molecule?
A: 0.0655 ± 0.01 kPa

Q: What about the “vapor or sublimation pressure” value (463.15 K) of the same molecule?
A: 0.1154 ± 0.018 kPa

Q: And the “vapor or sublimation pressure” value (473.15 K)?
A: 0.1874 ± 0.029 kPa
